Laboratory results published in the NIST ThermoML archive (doi:10.1016/j.jct.2015.08.036).
Numbers after ± are expanded uncertainties.

Legend:
[1] = xn = mol fraction of the nth substance listed; details: 100 kPa, Liquid, x2 = 0.25; for electrical conductivity: Alternating current cell with electrodes; for viscosity: Capillary tube (Ostwald / Ubbelohde) method; for mass density: Pycnometric method
[2] = 101.33 kPa, Liquid; for viscosity: Capillary tube (Ostwald / Ubbelohde) method; for mass density: Pycnometric method

CC(N)=O [ethanamide] + N#C[S-].[K+]
[1]
Details | electrical conductivity [S/m] | mass density [kg/m3] | viscosity [mPa·s]
298.15 K | 0.117 ± 0.0047 | 1197.1 ± 2.1 | 190.16 ± 12
303.15 K | 0.205 ± 0.0082 | 1193.7 ± 2.1 | 127.31 ± 7.9
308.15 K | 0.311 ± 0.012 | 1190.5 ± 2.1 | 88.81 ± 5.4
313.15 K | 0.429 ± 0.017 | 1187.7 ± 2.1 | 63.77 ± 3.9
318.15 K | 0.574 ± 0.023 | 1184.5 ± 2.1 | 48.11 ± 2.9

CCO [ethanol]
[2]
Details | mass density [kg/m3] | viscosity [mPa·s]
298.15 K | 785.2 ± 2 | 1.096 ± 0.066
303.15 K | 781 ± 2 | 1.003 ± 0.06
308.15 K | 776.7 ± 2 | 0.914 ± 0.055
313.15 K | 772.3 ± 2 | 0.834 ± 0.05
318.15 K | 766.3 ± 2 | 0.764 ± 0.046
